Measurements reported in US20080213396A1, “Copper Lowering Treatment Of Cardiac Disease” (The Regents of the University of Michigan, priority 2007, published 2008).

How the values were obtained:
Wilson's disease = conditions: cited from earlier work
[1] = stability assays developed by the inventors (Brewer et al. 1991); cited from earlier work
[2] = Solubility and storage stability of TM salts; type: physicochemical
From the text: In some embodiments, the salt of TM is an ammonium salt. […] Thus, the bulk drug should be stored in the absence of oxygen, or the oxygen will gradually exchange with the sulfur, rendering the drug ineffective over time. The bulk drug is therefore stored under argon.
Thus, other salts have been prepared and evaluated for solubility, stability and anticopper activity. […] In other embodiments, the salt choline TM has suitable desirable properties. In yet other embodiments, the salt tetraethyl TM has suitable properties. These exemplary salts of TM have suitable solubility in water, and behave similarly to ammonium salt of TM in in vitro copper complexing studies.

[3] = test system: doxorubicin model of heart damage; test: Zinc vs. TM therapy mouse doxorubicin study; type: in vivo, C57BL/6 mice; conditions: for day 4 troponin I plasma level: FIG. 2; for day 4 CK MB plasma level: FIG. 3; for plasma Cp at day 0 (day of DXR administration): after pretreatment to lower Cp
Method: (§1) Mice and mouse food. All mice were 7-8 weeks old at the start of the various studies, were C57BL/6 purchased from Jackson Laboratory, Bar Harbor, Me., and were housed at 21±2° C. on a 12 hr light/dark cycle in polycarbonate cages containing corn cob bedding. Experimental animals were housed in the University of Michigan Unit for Laboratory Animal Medicine facility and treated in accord with a protocol approved by the University of Michigan Institutional Animal Care and Use Committee. They were fed a mouse diet from Harlan/Teklad, Madison, Wis., to which copper and zinc had not been added by the manufacturer. Each lot was assayed by atomic absorption and found to contain about 0.6 mg of copper and about 6.0 mg of zinc/kg of food. Copper and zinc are then added to the diet such that the final contents were 2 mg copper and 10 mg zinc/kg of food.
Zinc vs. TM therapy mouse doxorubicin study. The zinc depot method involved injecting subcutaneously a 20 mg zinc/mL of corn oil suspension to achieve a dose of 110 mg of zinc/kg of mouse weight, weekly. With this method, Cp levels were lowered to target range in 4 weeks. Cp levels were lowered with TM in a second group of mice by using 0.015 mg/ml of TM in the drinking water, and changing the drinking water every day.
20 male mice were divided into four equal groups, 5 to receive depot zinc and then DXR, 5 to receive TM in the drinking water and then DXR, 5 to receive DXR only, and 5 to serve as controls. After Cp levels had been lowered in the first two groups, the first three groups of mice received DXR intraperitoneally at a single dose of 20 mg/kg body weight. Since DXR toxicity inhibits mice from drinking water, after DXR administration, TM mice were treated with a daily gavage of 0.2 mg of TM in 0.1 ml of water. Four days after DXR, all mice were sacrificed, and Cp, troponin I, creatine kinase (CK) MB, and lactic dehydrogenase (LDH) levels were all measured in the plasma according to previously described methods.
(§2) Assay Methods. Cp was measured by the oxidase enzyme using known methods. Troponin I, LDH, and CK MB were measured by kit methods using known methods.
(§3) Statistical Analysis. For the comparison of means analysis of variance (ANOVA) was used. All data in the figures are given as means+the standard error.

DXR toxicity = test: TM therapy copper supplementation doxorubicin study; type: in vivo, mice
Method: as §1
TM therapy copper supplementation doxorubicin study. In order to verify that the effect of TM in the DXR study was due to lowering copper, a study of DXR toxicity was done in which a TM treated group was supplemented with excess copper. In this study, 20 mice were divided into four equal groups, 5 to receive 0.015 mg/ml of TM in the drinking water to lower Cp and then receive DXR (TM was given by gavage after DRX), 5 to receive TM in the same dose and manner as the first group but the diet was supplemented with either 30 or 100 ppm copper such that the Cp didn't fall as far as with TM alone, and then they received DXR, 5 to receive DXR only, and 5 served as controls. After Cp was decreased in the first group, DXR in an intraperitoneal dose of 20 mg/kg body weight was given to the first three groups of mice. Four days after DXR the mice were sacrificed and serum Cp, troponin I, and LDH determined.
as §2, §3

[4] = test system: DXR induced cardiotoxicity and myocardial fibrosis; test: Trientine mouse doxorubicin study; type: in vivo, mice
Method: as §1, with “Each lot was assayed by atomic absorption and found to contain about 0.6 mg of copper and about 6.0 mg of zinc/kg of food.” left out
Trientine mouse doxorubicin study. The copper chelator trientine was studied and compared to TM to determine the effects, if any, of trientine on DXR induced cardiotoxicity and myocardial fibrosis in mice using doses of trientine by oral gavage to lower the Cp to target range.
as §2, §3

[5] = test system: myocardial toxicity resulting from administration of doxorubicin HCl; conditions: administered contemporaneously with doxorubicin HCl; cited from earlier work
doxorubicin toxicity = conditions: mice, previously found; cited from earlier work
[6] = 4 days after DXR, vs DXR controls

For `[Mo]` [Mo, molybdenum], the “toxicity of high doses” value (Wilson's disease; human, in vivo) is given as “without toxicity”.
For `[NH4+].[NH4+].[SH-].[SH-].[S]=[Mo]=[S]` [TM as the ammonium salt], the “stability of bulk drug under argon” value [1] is given as “stable for several years under argon”, the solubility in water [2] is given as “moderately water soluble” and the stability in air ([2]; bulk drug) is given as “mild air instability”. The stability in capsules ([2]; room temperature) was “stable in capsules for several months at room temperature”.
For `[SH-].[SH-].[S]=[Mo]=[S]` [TM, tetrathiomolybdate], the “plasma Cp at day 4 (day of sacrifice), increase after DXR” value ([3]; 4 days after DXR 20 mg/kg i.p., FIG. 1) was “almost completely prevented”, the “day 4 troponin I plasma level” value [3, 6] was “statistically significant effect on maintaining a lower troponin I” and the “day 4 CK MB plasma level” value [3, 6] was “statistically significantly lower value than DXR controls”. The “day 4 LDH plasma level” value ([3]; 4 days after DXR, vs DXR controls, FIG. 4) was “statistically significant effect on maintaining lower values than DXR controls”, the “plasma Cp at day 0 (day of DXR administration)” value ([3]; FIG. 1) was “equal suppression of Cp” and the “protection against cardiac damage, comparison with zinc” value ([3]; similar levels of copper lowering at the time of doxorubicin exposure) was “much more effective than zinc”. For the same compound, the toxicity in humans (Wilson's disease; Wilson's disease work) was “extremely low level of toxicity”, the “effect on neurological worsening during initial treatment” value (Wilson's disease; Wilson's disease) was “prevents the neurological worsening” and the “Cp value on day zero (day of DXR administration)” value (DXR toxicity; group average, DXR only group about 25 U/L) was “about 12 U/L”. For the same compound, the “plasma LDH at day 4 after DXR” value (DXR toxicity; vs DXR only animals, FIG. 6) was “statistically significantly lower than in the DXR only animals”, the “mean troponin I level at day 4 after DXR” value (DXR toxicity; vs DXR only animals, FIG. 7) was “less than half of the DXR only animals” and the “protection of the heart against doxorubicin toxicity, comparison with trientine” value ([4]; same animal model) was “much more effective than trientine”.
For `CCC[N+](CCC)(CCC)CCC.CCC[N+](CCC)(CCC)CCC.[S]=[Mo](=[S])([S-])[S-]` [TPTM, tetrapropyl tetrathiomolybdate], the “solubility, stability and anticopper activity, overall” value [2] was “has met all desired properties”.
For `C[C@@H](CN1CC(=O)NC(=O)C1)N1CC(=O)NC(=O)C1` [dexrazoxane, (S)-(+)-bis-4,4′-(1-methyl-1,2-ethanediyl)2,6-piperazinedione], the “effect on myocardial toxicity of doxorubicin HCl” value [5] is given as “can reduce or prevent the myocardial toxicity”.
For `CC(C)(S)[C@@H](N)C(=O)O` [penicillamine, reference compound], the “neurological worsening during initial treatment” value (Wilson's disease; Wilson's disease, share of the time) is given as 50%.
In the case of `NCCNCCNCCN` [trientine], the “effect on LDH” value ([4]; FIG. 5B) is reported as “no protective effect”, the “effect on CK-MB” value ([4]; FIG. 5C) is reported as “no protective effect” and the “effect on Troponin 1” value ([4]; FIG. 5D) is reported as “statistically insignificant effect”. For the same compound, the “Cp at day 4 (4 days after DXR)” value ([4]; continued trientine therapy by oral gavage, FIG. 5A) was “increased into the normal range” and the “Cp at day 0 (when DXR is given)” value ([4]; pretreated by oral gavage, FIG. 5A) was “down significantly, into the target range”.
In the case of `[Zn]` [zinc, reference compound], the “day 4 troponin I plasma level” value [3, 6] is reported as “somewhat lower mean value than controls, but it didn't reach statistical significance”, the “day 4 CK MB plasma level” value [3, 6] is reported as “no effect” and the “plasma Cp at day 0 (day of DXR administration)” value ([3]; FIG. 1) is reported as “equal suppression of Cp”. For the same compound, the “time until Cp levels lowered to target range” value ([3]; zinc depot s.c. 110 mg zinc/kg weekly) was 4 weeks and the “effect on doxorubicin toxicity” value (doxorubicin toxicity) was “attenuates doxorubicin toxicity”.
